Assay results taken from ChEMBL document CHEMBL1155757, “Cytotoxicity of Ganoderma lucidum triterpenes” (J Nat Prod, 2001).

How the values were obtained:
Format in all cases: functional, cell-based
[1] = Cytotoxicity against human HepG2(2.2.15) cells
KB = assay: Cytotoxicity against human KB cells
HepG2 = assay: Cytotoxicity against human HepG2 cells
P388 = assay: Cytotoxicity against mouse P388 cells
[2] = Cytotoxicity against human CCM2 cells

SMILES | IC50 [1] [µM] | IC50 (KB) [µM] | IC50 (HepG2) [µM] | IC50 (P388) [µM] | IC50 [2] [µM]
C[C@H](CCC(=O)O)[C@H]1CC(=O)[C@@]2(C)C3=C(C(=O)C[C@]12C)[C@@]1(C)CC[C@H](O)C(C)(C)[C@@H]1C[C@@H]3O [LUCIDENIC ACID N] | 0.00166 | 26.7 | 0.000206 | 0.012 | 35.5
C[C@H](CCC(=O)O)[C@H]1CC(=O)[C@@]2(C)C3=C(C(=O)C[C@]12C)[C@@]1(C)CCC(=O)C(C)(C)[C@@H]1C[C@@H]3O [LUCIDENIC ACID A] | 0.000205 | 17 | 0.000164 | 0.017 | 27.5
C[C@H](CC(=O)C[C@@H](C)[C@H]1CC(=O)[C@@]2(C)C3=C(C(=O)C[C@]12C)[C@@]1(C)CCC(=O)C(C)(C)[C@@H]1CC3=O)C(=O)O [GANODERIC ACID E] | 0.000105 | – | 0.000144 | 5.01 | 31.2
